# Measurements as given in US12661345B2, “Compositions for the treatment of hypertension” (The George Institute for Global Health, priority 2017, dated 2026).
# Read-outs that look alike come from different tables or passages of the source.
# Experiments:
# [1] = test system: participants with migraine; assay: Office blood pressure in 12-week double blind randomized 3×3 factorial trial; assay type: in vivo, human
# Protocol: There was a 4 week screening period and another 4-week post study drug observational period.
# There was a 4-week screening period and another 4-week post study drug observational period.
# Group 2 received the low-dose BP lowering combination and simvastatin (i.e., telmisartan 20 mg+amlodipine 2.5 mg+simvastatin). Group 3 received the low-dose BP lowering combination and placebo (i.e., telmisartan 20 mg+amlodipine 2.5 mg+placebo). […] Group 9 received double placebo.
# Office BP was measured following the recommendations of the Australian National Heart Foundation. Participants were rested in the seated position for 5 minutes, an appropriate cuff size was selected and 3 measurements of BP were recorded using an Omron HEM907 monitor or equivalent validated automated digital BP monitor. Principles of automated office BP measurements were applied whereby the patient was left alone during BP recording.
# All analyses of study outcomes were conducted according to the principle of intention-to-treat. The analyses of continuous outcomes such SBP and LDL-cholesterol at 12 weeks was performed using ANCOVA including the treatment arm and baseline values as a covariate. Additional analyses included interim measurements in a longitudinal model including treatment arm, visit, and treatment by visit interaction as well as the baseline measurement. Within-patient correlations were modelled using generalized estimating equations. A similar approach was applied to binary endpoints with log-binomial regression used in place of linear regression. There were also pre-defined subgroup analyses, baseline BP, baseline LDL, gender and age.
# [2] = test system: participants with migraine; settings: human, in vivo
# From the text: Difference between groups in participant withdrawals from treatment • 2.
# [3] = Randomization (baseline, before treatment)
# [4] = Randomization, BP arm versus placebo, interval in brackets
# [5] = Week 4, BP arm versus placebo, interval in brackets
# [6] = Week 12, BP arm versus placebo, interval in brackets
# [7] = Week 16 (after 4-week post study drug period)
# [8] = Week 16, BP arm versus placebo, interval in brackets
# [9] = overall line, BP arm versus placebo, interval in brackets, footnote # not given
smiles,measurement,setting,value
"CC(C)NCC(O)COc1cccc2ccccc12 (stereo not drawn) [Propranolol, propranolol]",Diastolic Blood Pressure Mean (SD),[1]; [3],10 85.1 (12.48) mmHg
same,Diastolic Blood Pressure Q1,[1]; [3],75.7 mmHg
same,Diastolic Blood Pressure Q2,[1]; [3],77.7 mmHg
same,Diastolic Blood Pressure Q3,[1]; [3],95.7 mmHg
same,Diastolic Blood Pressure min,[1]; [3],73 mmHg
same,Systolic Blood Pressure Mean (SD),[1]; [3],10 130.4 (16.09) mmHg
same,Systolic Blood Pressure Q1,[1]; [3],116.7 mmHg
same,Systolic Blood Pressure Q2,[1]; [3],129.3 mmHg
same,Systolic Blood Pressure Q3,[1]; [3],146.3 mmHg
same,Systolic Blood Pressure max,[1]; [3],153 mmHg
same,Diastolic Blood Pressure Mean difference,[1]; [4],"3.67 (−4.68, 12.02) mmHg"
same,Systolic Blood Pressure Mean difference,[1]; [4],"6.52 (−4.86, 17.91) mmHg"
same,Diastolic Blood Pressure Mean (SD),[1]; Week 4,10 75.5 (9.75) mmHg
same,Diastolic Blood Pressure Q1,[1]; Week 4,69.0 mmHg
same,Diastolic Blood Pressure Q2,[1]; Week 4,73.3 mmHg
same,Diastolic Blood Pressure Q3,[1]; Week 4,83.3 mmHg
same,Diastolic Blood Pressure max,[1]; Week 4,89 mmHg
same,Diastolic Blood Pressure min,[1]; Week 4,62 mmHg
same,"Diastolic Blood Pressure, Change from Baseline, Mean (SD)",[1]; Week 4,10 −9.6 (5.66)
same,"Diastolic Blood Pressure, Change from Baseline, Q1",[1]; Week 4,−13.0
same,"Diastolic Blood Pressure, Change from Baseline, Q2",[1]; Week 4,−10.3
same,"Diastolic Blood Pressure, Change from Baseline, Q3",[1]; Week 4,−4.3
same,"Diastolic Blood Pressure, Change from Baseline, max",[1]; Week 4,−1
same,"Diastolic Blood Pressure, Change from Baseline, min",[1]; Week 4,−19
same,Systolic Blood Pressure Mean (SD),[1]; Week 4,10 121.3 (14.92) mmHg
same,Systolic Blood Pressure Q1,[1]; Week 4,108.7 mmHg
same,Systolic Blood Pressure Q2,[1]; Week 4,116.8 mmHg
same,Systolic Blood Pressure Q3,[1]; Week 4,135.3 mmHg
same,Systolic Blood Pressure max,[1]; Week 4,146 mmHg
same,"Systolic Blood Pressure, Change from Baseline, Mean (SD)",[1]; Week 4,10 −9.1 (5.63)
same,"Systolic Blood Pressure, Change from Baseline, Q1",[1]; Week 4,−13.3
same,"Systolic Blood Pressure, Change from Baseline, Q2",[1]; Week 4,−8.5
same,"Systolic Blood Pressure, Change from Baseline, Q3",[1]; Week 4,−5.0
same,"Systolic Blood Pressure, Change from Baseline, max",[1]; Week 4,−1
same,"Systolic Blood Pressure, Change from Baseline, min",[1]; Week 4,−18
same,Diastolic Blood Pressure Mean difference,[1]; [5],"−3.53 (−11.29, 4.22) mmHg"
same,Systolic Blood Pressure Mean difference,[1]; [5],"−2.60 (−14.65, 9.45) mmHg"
same,"Diastolic Blood Pressure, Change from Baseline, Mean difference","[1]; Week 4, interval in brackets","−7.53 (−13.19, −1.88)"
same,"Systolic Blood Pressure, Change from Baseline, Mean difference","[1]; Week 4, interval in brackets","−9.23 (−17.31, −1.16)"
same,Diastolic Blood Pressure Mean (SD),[1]; Week 8,10 75.0 (8.82) mmHg
same,Diastolic Blood Pressure Q1,[1]; Week 8,66.3 mmHg
same,Diastolic Blood Pressure Q2,[1]; Week 8,76.5 mmHg
same,Diastolic Blood Pressure Q3,[1]; Week 8,83.3 mmHg
same,Diastolic Blood Pressure max,[1]; Week 8,85 mmHg
same,Diastolic Blood Pressure min,[1]; Week 8,61 mmHg
same,"Diastolic Blood Pressure, Change from Baseline, Mean (SD)",[1]; Week 8,10 −10.1 (6.39)
same,"Diastolic Blood Pressure, Change from Baseline, Q1",[1]; Week 8,−12.7
same,"Diastolic Blood Pressure, Change from Baseline, Q2",[1]; Week 8,−10.8
same,"Diastolic Blood Pressure, Change from Baseline, Q3",[1]; Week 8,−7.0
same,"Diastolic Blood Pressure, Change from Baseline, max",[1]; Week 8,0
same,"Diastolic Blood Pressure, Change from Baseline, min",[1]; Week 8,−22
same,Systolic Blood Pressure Mean (SD),[1]; Week 8,10 118.6 (12.56) mmHg
same,Systolic Blood Pressure Q1,[1]; Week 8,112.3 mmHg
same,Systolic Blood Pressure Q2,[1]; Week 8,119.5 mmHg
same,Systolic Blood Pressure Q3,[1]; Week 8,127.0 mmHg
same,Systolic Blood Pressure max,[1]; Week 8,135 mmHg
same,Systolic Blood Pressure min,[1]; Week 8,95 mmHg
same,"Systolic Blood Pressure, Change from Baseline, Mean (SD)",[1]; Week 8,10 −11.8 (11.44)
same,"Systolic Blood Pressure, Change from Baseline, Q1",[1]; Week 8,−18.0
same,"Systolic Blood Pressure, Change from Baseline, Q2",[1]; Week 8,−11.8
same,"Systolic Blood Pressure, Change from Baseline, Q3",[1]; Week 8,−4.3
same,"Systolic Blood Pressure, Change from Baseline, max",[1]; Week 8,6
same,"Systolic Blood Pressure, Change from Baseline, min",[1]; Week 8,−30
same,Diastolic Blood Pressure Mean difference,"[1]; Week 8, BP arm versus placebo, interval in brackets","−3.67 (−10.23, 2.90) mmHg"
same,"Diastolic Blood Pressure, Change from Baseline, Mean difference","[1]; Week 8, interval in brackets","−7.67 (−12.92, −2.41)"
same,"Systolic Blood Pressure, Change from Baseline, Mean difference","[1]; Week 8, interval in brackets","−7.30 (−17.13, 2.53)"
same,"Diastolic Blood Pressure, Change from Baseline, Mean (SD)",[1]; Week 12,10 −10.5 (6.44)
same,"Diastolic Blood Pressure, Change from Baseline, Q1",[1]; Week 12,−16.7
same,"Diastolic Blood Pressure, Change from Baseline, Q2",[1]; Week 12,−9.3
same,"Diastolic Blood Pressure, Change from Baseline, Q3",[1]; Week 12,−4.3
same,"Diastolic Blood Pressure, Change from Baseline, max",[1]; Week 12,−3
same,"Diastolic Blood Pressure, Change from Baseline, min",[1]; Week 12,−22
same,"Systolic Blood Pressure, Change from Baseline, Mean (SD)",[1]; Week 12,10 −10.9 (10.07)
same,"Systolic Blood Pressure, Change from Baseline, Q1",[1]; Week 12,−17.0
same,"Systolic Blood Pressure, Change from Baseline, Q2",[1]; Week 12,−12.8
same,"Systolic Blood Pressure, Change from Baseline, Q3",[1]; Week 12,−4.0
same,"Systolic Blood Pressure, Change from Baseline, max",[1]; Week 12,5
same,"Systolic Blood Pressure, Change from Baseline, min",[1]; Week 12,−30
same,Diastolic Blood Pressure Mean (SD),[1]; Week 12 (end of treatment),10 74.6 (15.07) mmHg
same,Diastolic Blood Pressure Q1,[1]; Week 12 (end of treatment),60.7 mmHg
same,Diastolic Blood Pressure Q2,[1]; Week 12 (end of treatment),70.0 mmHg
same,Diastolic Blood Pressure Q3,[1]; Week 12 (end of treatment),85.7 mmHg
same,Diastolic Blood Pressure max,[1]; Week 12 (end of treatment),97 mmHg
same,Diastolic Blood Pressure min,[1]; Week 12 (end of treatment),54 mmHg
same,Systolic Blood Pressure Mean (SD),[1]; Week 12 (end of treatment),10 119.5 (17.83) mmHg
same,Systolic Blood Pressure Q2,[1]; Week 12 (end of treatment),117.5 mmHg
same,Systolic Blood Pressure Q3,[1]; Week 12 (end of treatment),135.3 mmHg
same,Systolic Blood Pressure max,[1]; Week 12 (end of treatment),145 mmHg
same,Systolic Blood Pressure min,[1]; Week 12 (end of treatment),88 mmHg
same,Diastolic Blood Pressure Mean difference,[1]; [6],"−3.50 (−14.77, 7.77) mmHg"
same,Systolic Blood Pressure Mean difference,[1]; [6],"−1.77 (−14.87, 11.34) mmHg"
same,"Diastolic Blood Pressure, Change from Baseline, Mean difference","[1]; Week 12, interval in brackets","−7.50 (−13.65, −1.35)"
same,"Systolic Blood Pressure, Change from Baseline, Mean difference","[1]; Week 12, interval in brackets","−8.40 (−16.80, −0.00)"
same,Change in DBP from baseline to 12 weeks Mean (SD),[1]; Week 12 v/s Baseline,10 −10.5 (6.44) mmHg
same,Change in DBP from baseline to 12 weeks Q1,[1]; Week 12 v/s Baseline,−16.7 mmHg
same,Change in DBP from baseline to 12 weeks Q2,[1]; Week 12 v/s Baseline,−9.3 mmHg
same,Change in DBP from baseline to 12 weeks Q3,[1]; Week 12 v/s Baseline,−4.3 mmHg
same,Change in DBP from baseline to 12 weeks max,[1]; Week 12 v/s Baseline,−3 mmHg
same,Change in DBP from baseline to 12 weeks min,[1]; Week 12 v/s Baseline,−22 mmHg
same,Change in SBP from baseline to 12 weeks Mean (SD),[1]; Week 12 v/s Baseline,10 −10.9 (10.07) mmHg
same,Change in SBP from baseline to 12 weeks Q1,[1]; Week 12 v/s Baseline,−17.0 mmHg
same,Change in SBP from baseline to 12 weeks Q2,[1]; Week 12 v/s Baseline,−12.8 mmHg
same,Change in SBP from baseline to 12 weeks Q3,[1]; Week 12 v/s Baseline,−4.0 mmHg
same,Change in SBP from baseline to 12 weeks max,[1]; Week 12 v/s Baseline,5 mmHg
same,Change in SBP from baseline to 12 weeks min,[1]; Week 12 v/s Baseline,−30 mmHg
same,"Diastolic Blood Pressure, Change from Baseline, Mean (SD)",[1]; Week 16,9 −3.9 (4.82)
same,"Diastolic Blood Pressure, Change from Baseline, Q1",[1]; Week 16,−7.7
same,"Diastolic Blood Pressure, Change from Baseline, Q2",[1]; Week 16,−2.7
same,"Diastolic Blood Pressure, Change from Baseline, Q3",[1]; Week 16,−0.7
same,"Diastolic Blood Pressure, Change from Baseline, max",[1]; Week 16,4
same,"Diastolic Blood Pressure, Change from Baseline, min",[1]; Week 16,−11
same,"Systolic Blood Pressure, Change from Baseline, Mean (SD)",[1]; Week 16,9 −2.3 (5.95)
same,"Systolic Blood Pressure, Change from Baseline, Q1",[1]; Week 16,−6.3
same,"Systolic Blood Pressure, Change from Baseline, Q2",[1]; Week 16,−3.3
same,"Systolic Blood Pressure, Change from Baseline, Q3",[1]; Week 16,2.3
same,"Systolic Blood Pressure, Change from Baseline, max",[1]; Week 16,6
same,"Systolic Blood Pressure, Change from Baseline, min",[1]; Week 16,−11
same,Diastolic Blood Pressure Mean (SD),[1]; [7],9 82.0 (11.14) mmHg
same,Diastolic Blood Pressure Q1,[1]; [7],73.3 mmHg
same,Diastolic Blood Pressure Q2,[1]; [7],82.3 mmHg
same,Diastolic Blood Pressure Q3,[1]; [7],87.3 mmHg
same,Diastolic Blood Pressure min,[1]; [7],70 mmHg
same,Systolic Blood Pressure Mean (SD),[1]; [7],9 129.6 (15.12) mmHg
same,Systolic Blood Pressure Q1,[1]; [7],119.7 mmHg
same,Systolic Blood Pressure Q2,[1]; [7],129.3 mmHg
same,Systolic Blood Pressure Q3,[1]; [7],136.7 mmHg
same,Systolic Blood Pressure max,[1]; [7],159 mmHg
same,Diastolic Blood Pressure Mean difference,[1]; [8],"0.97 (−7.91, 9.85) mmHg"
same,Systolic Blood Pressure Mean difference,[1]; [8],"8.19 (−2.91, 19.28) mmHg"
same,"Diastolic Blood Pressure, Change from Baseline, Mean difference","[1]; Week 16, interval in brackets","−3.93 (−9.96, 2.11)"
same,"Systolic Blood Pressure, Change from Baseline, Mean difference","[1]; Week 16, interval in brackets","0.10 (−6.97, 7.17)"
same,Diastolic Blood Pressure # Mean difference,[1]; [9],"−3.57 (−11.29, 4.16) mmHg"
same,Systolic Blood Pressure # Mean difference,[1]; [9],"−1.68 (−12.28, 8.92) mmHg"
same,Discontinuing the study (n/N),[2]; 4 week,0/10
same,Discontinuing the study (percent),[2]; 4 week,(0.0%)
same,Discontinuing the study (n/N),[2]; 8 week,0/10
same,Discontinuing the study (percent),[2]; 8 week,(0.0%)
same,Discontinuing the study (n/N),[2]; 12 week,0/10
same,Discontinuing the study (percent),[2]; 12 week,(0.0%)
same,Deceased (n/N),[2]; 16 week,0/10
same,Deceased (percent),[2]; 16 week,(0.0%)
